Test results published in article PMC11079024, “Identification of a family of species-selective complex I inhibitors as potential anthelmintics” (Nature Communications, 2024).
Values joined by “and” are separate entries in the source; they are usually repeats but may differ in a detail not shown here. Identical values can stand only once.

Key:
[1] = biological target: H. sapiens (HEK293 cells) complex I (Homo sapiens, UniProt O75251+O75306+P03886); experiment: In vitro complex I activity assay, HEK293 cell mitochondria; assay type: biochemical
L1 C. briggsae (AF16) = experiment: Liquid development and viability assay, C. briggsae; assay type: cell-based, Caenorhabditis briggsae; settings: liquid growth and development assay, 1 = like DMSO control, 0 = death
Description: (§1) Supplementary Figure 9. Class A, B, and C benzimidazoles inhibit complex I of several Clade V nematode species in vitro. […]
(§2) against the in vitro complex I activity from C. elegans, C. briggsae, P. pacificus, and P. hermaphrodita […]
(§3) L1 C. elegans (N2), C. briggsae (AF16), and P. pacificus (PS312) in a nematode liquid growth and development assay. The colour-coded scale denotes the viability of nematodes following drug treatment relative to DMSO controls; white/pale-yellow indicates nematode growth and viability similar to DMSO controls and red indicates nematode death and arrested development. Data are the mean of at least three biological replicates. Due to seemingly poor growth in liquid culture, P. hermaphrodita was not tested in the liquid viability and development assay.
(§4) Supplementary Figure 9 (continued). Davie et al.

L1 P. pacificus (PS312) = experiment: Liquid development and viability assay, P. pacificus; assay type: cell-based, Pristionchus pacificus; settings: liquid growth and development assay, 1 = like DMSO control, 0 = death
Description: as §1, §2, §3, §4

[2] = test system: C. elegans (N2) complex I (NADH:ubiquinone oxidoreductase); experiment: biochemical; assay type: biochemical; settings: wild-type C. elegans mitochondria
Outline: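 Complex I rate: initial linear slope of A600 over 15 min, expressed as percent of solvent control. Triple freeze-thawed mitochondria (0.2 mg/mL) in KPi pH 7.5, BSA 3 mg/mL, NADH 80 μM, decylubiquinone 60 μM, DCIP 160 μM, antimycin A, KCN.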

H. sapiens (HEK293 cells) complex I, sequence (O75251 39-213): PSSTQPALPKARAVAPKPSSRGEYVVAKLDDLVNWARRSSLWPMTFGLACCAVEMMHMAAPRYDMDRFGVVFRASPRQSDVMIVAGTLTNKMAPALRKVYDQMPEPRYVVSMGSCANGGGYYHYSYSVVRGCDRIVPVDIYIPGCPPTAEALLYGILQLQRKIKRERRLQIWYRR
H. sapiens (HEK293 cells) complex I, sequence (P03886 whole entry): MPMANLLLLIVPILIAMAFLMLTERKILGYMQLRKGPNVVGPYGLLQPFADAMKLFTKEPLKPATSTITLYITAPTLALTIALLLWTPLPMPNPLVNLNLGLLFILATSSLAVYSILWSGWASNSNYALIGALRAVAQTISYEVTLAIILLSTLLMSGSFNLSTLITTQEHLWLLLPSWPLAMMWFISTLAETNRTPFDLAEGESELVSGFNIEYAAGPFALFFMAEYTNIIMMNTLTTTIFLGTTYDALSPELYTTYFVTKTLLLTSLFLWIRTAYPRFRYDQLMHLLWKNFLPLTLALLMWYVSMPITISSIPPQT
H. sapiens (HEK293 cells) complex I, sequence (O75306 34-463): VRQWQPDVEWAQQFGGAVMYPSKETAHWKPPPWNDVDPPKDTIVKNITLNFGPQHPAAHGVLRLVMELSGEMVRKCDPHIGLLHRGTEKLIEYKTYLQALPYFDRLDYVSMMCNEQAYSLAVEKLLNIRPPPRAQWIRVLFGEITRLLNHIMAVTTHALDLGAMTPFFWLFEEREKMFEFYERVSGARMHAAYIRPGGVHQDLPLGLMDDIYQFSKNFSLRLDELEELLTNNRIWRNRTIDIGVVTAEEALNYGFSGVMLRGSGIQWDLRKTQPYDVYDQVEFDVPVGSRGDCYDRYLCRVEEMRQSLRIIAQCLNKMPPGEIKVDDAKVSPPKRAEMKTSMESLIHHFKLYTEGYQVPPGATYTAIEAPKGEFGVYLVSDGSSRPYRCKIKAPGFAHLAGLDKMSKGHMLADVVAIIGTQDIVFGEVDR

## CC(C)Cc1ccc(C(C)c2nc3ccccc3n2C)cc1 (stereo not shown) [NPD8790]
[1]; H. sapiens (HEK293 cells) mitochondria, 0.06 µM, Mean of replicates, read-out: in vitro complex I activity relative to solvent control
  remaining activity at 0.06 µM: 90.2%
[1]; H. sapiens (HEK293 cells) mitochondria, 0.13 µM, Mean of replicates, read-out: in vitro complex I activity relative to solvent control
  remaining activity at 0.13 µM: 78.3%
[1]; H. sapiens (HEK293 cells) mitochondria, 0.313 µM, Mean of replicates, read-out: in vitro complex I activity relative to solvent control
  remaining activity at 0.313 µM: 76.7%
[1]; H. sapiens (HEK293 cells) mitochondria, 0.625 µM, Mean of replicates, read-out: in vitro complex I activity relative to solvent control
  remaining activity at 0.625 µM: 129%
[1]; H. sapiens (HEK293 cells) mitochondria, 1.5 µM, Mean of replicates, read-out: in vitro complex I activity relative to solvent control
  remaining activity at 1.5 µM: 95.7%
[1]; H. sapiens (HEK293 cells) mitochondria, 3 µM, Mean of replicates, read-out: in vitro complex I activity relative to solvent control
  remaining activity at 3 µM: 102%
[1]; H. sapiens (HEK293 cells) mitochondria, 15 µM, Mean of replicates, read-out: in vitro complex I activity relative to solvent control
  remaining activity at 15 µM: 85.1%
[1]; H. sapiens (HEK293 cells) mitochondria, 37.5 µM, Mean of replicates, read-out: in vitro complex I activity relative to solvent control
  remaining activity at 37.5 µM: 52.8%
[1]; H. sapiens (HEK293 cells) mitochondria, 75 µM, Mean of replicates, read-out: in vitro complex I activity relative to solvent control
  remaining activity at 75 µM: 61.5%
[1]; mitochondria purified from HEK293 cells
  IC50: > 75 µM

## Cc1nc2ccccc2n1Cc1ccc(Cl)cc1 [STK697993]
L1 C. briggsae (AF16); 2 µM
  viability score (0-1) relative to DMSO controls: 1.000
L1 C. briggsae (AF16); 3.9 µM
  viability score (0-1) relative to DMSO controls: 1.000
L1 C. briggsae (AF16); 15.6 µM
  viability score (0-1) relative to DMSO controls: 1.000
L1 C. briggsae (AF16); 31.3 µM
  viability score (0-1) relative to DMSO controls: 0.341
L1 C. briggsae (AF16); 62.5 µM
  viability score (0-1) relative to DMSO controls: 0.009
L1 C. briggsae (AF16); 125 µM
  viability score (0-1) relative to DMSO controls: 0.017
L1 C. briggsae (AF16); 250 µM
  viability score (0-1) relative to DMSO controls: 0.008
L1 P. pacificus (PS312); 2 µM
  viability score (0-1) relative to DMSO controls: 1.000
L1 P. pacificus (PS312); 3.9 µM
  viability score (0-1) relative to DMSO controls: 1.000
L1 P. pacificus (PS312); 15.6 µM
  viability score (0-1) relative to DMSO controls: 0.943
L1 P. pacificus (PS312); 31.3 µM
  viability score (0-1) relative to DMSO controls: 0.0076
L1 P. pacificus (PS312); 62.5 µM
  viability score (0-1) relative to DMSO controls: 0.000
L1 P. pacificus (PS312); 125 µM
  viability score (0-1) relative to DMSO controls: 0.007
L1 P. pacificus (PS312); 250 µM
  viability score (0-1) relative to DMSO controls: 0.026

## c1ccc2[nH]c(-c3cscn3)nc2c1 [Thiabendazole]
[2]; 0.125 µM, mean of replicates
  percent (%) in vitro complex I activity relative to solvent control: 102.109%
[2]; 0.125 µM, single replicate
  percent (%) in vitro complex I activity relative to solvent control: 99.976% and 103.068% and 101.883% and 103.510%
[2]; 0.313 µM, mean of replicates
  percent (%) in vitro complex I activity relative to solvent control: 98.029%
[2]; 0.313 µM, single replicate
  percent (%) in vitro complex I activity relative to solvent control: 96.436% and 97.421% and 98.637% and 99.622%
[2]; 0.625 µM, mean of replicates
  percent (%) in vitro complex I activity relative to solvent control: 100.000%
[2]; 0.625 µM, single replicate
  percent (%) in vitro complex I activity relative to solvent control: 100.000%
[2]; 1.5 µM, mean of replicates
  percent (%) in vitro complex I activity relative to solvent control: 94.806%
[2]; 1.5 µM, single replicate
  percent (%) in vitro complex I activity relative to solvent control: 99.025% and 95.797% and 89.075% and 95.328%
[2]; 3 µM, mean of replicates
  percent (%) in vitro complex I activity relative to solvent control: 103.387%
[2]; 3 µM, single replicate
  percent (%) in vitro complex I activity relative to solvent control: 101.704% and 108.843% and 104.258% and 98.742%
[2]; 15 µM, mean of replicates
  percent (%) in vitro complex I activity relative to solvent control: 102.027%
[2]; 15 µM, single replicate
  percent (%) in vitro complex I activity relative to solvent control: 100.357% and 106.821% and 103.640% and 97.291%
[2]; 37.5 µM, mean of replicates
  percent (%) in vitro complex I activity relative to solvent control: 98.201%
[2]; 37.5 µM, single replicate
  percent (%) in vitro complex I activity relative to solvent control: 99.533% and 98.195% and 100.518% and 94.556%
[2]; 75 µM, mean of replicates
  percent (%) in vitro complex I activity relative to solvent control: 97.767%
[2]; 75 µM, single replicate
  percent (%) in vitro complex I activity relative to solvent control: 97.247% and 98.620% and 98.499% and 96.702%
